The values below come from patent publication US8492589B2, “Alkynyl phenyl derivative compounds for treating ophthalmic diseases and disorders” (Acucela Inc., priority 2007, dated 2013).

SMILES strings stand for the structures.

The target in the first assay is T1, visual cycle isomerase (Bovine RPE microsome membranes) (Bos taurus, UniProt Q28175).
T1 construct: Bovine Retinal Pigment Epithelium (RPE) microsome membranes were the source of a visual cycle isomerase; from tissue; host or cells: bovine retinal pigment epithelium microsome membranes
T1 sequence (Q28175 2-533 limits assumed): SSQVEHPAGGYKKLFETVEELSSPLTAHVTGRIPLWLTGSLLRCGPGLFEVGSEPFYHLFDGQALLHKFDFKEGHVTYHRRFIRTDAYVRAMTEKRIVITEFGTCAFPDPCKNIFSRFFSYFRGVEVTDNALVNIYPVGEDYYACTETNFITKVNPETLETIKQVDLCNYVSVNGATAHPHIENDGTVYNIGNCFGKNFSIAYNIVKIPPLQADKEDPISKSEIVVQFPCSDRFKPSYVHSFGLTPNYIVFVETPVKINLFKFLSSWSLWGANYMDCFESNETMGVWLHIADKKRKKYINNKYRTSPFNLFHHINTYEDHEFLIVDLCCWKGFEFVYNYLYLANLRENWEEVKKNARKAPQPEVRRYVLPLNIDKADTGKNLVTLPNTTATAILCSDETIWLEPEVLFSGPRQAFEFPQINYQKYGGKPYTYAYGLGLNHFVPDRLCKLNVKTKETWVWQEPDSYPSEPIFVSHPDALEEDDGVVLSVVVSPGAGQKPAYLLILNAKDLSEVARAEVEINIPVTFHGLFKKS
The experiment in a line: In vitro isomerase inhibition assay, bovine RPE microsome membranes. It counts as biochemical. The conditions noted are these: bovine RPE microsomes; 11-cis retinol formation. On the procedure:
The capability of alkynyl phenyl-linked amine derivative compounds to inhibit the activity of a visual cycle isomerase was determined.
Bovine Retinal Pigment Epithelium (RPE) microsome membranes were the source of a visual cycle isomerase.
Crude RPE microsome extracts were thawed in a 37° C. water bath, and then immediately placed on ice. 50 ml crude RPE microsomes were placed into a 50 ml Teflon-glass homogenizer (Fisher Scientific, catalog no. 0841416M) on ice, powered by a hand-held DeWalt drill, and homogenized ten times up and down on ice under maximum speed. This process was repeated until the crude RPE microsome solution was homogenized. The homogenate was then subjected to centrifugation (50.2 Ti rotor (Beckman, Fullerton, Calif.), 13,000 RPM; 15360 Rcf) for 15 minutes at 4° C. The supernatant was collected and subjected to centrifugation at 42,000 RPM (160,000 Rcf; 50.2 Ti rotor) for 1 hour at 4° C. The supernatant was removed, and the pellets were suspended in 12 ml (final volume) cold 10 mM MOPS buffer, pH 7.0. The resuspended RPE membranes in 5 ml aliquots were homogenized in a glass-to-glass homogenizer (Fisher Scientific, catalog no. K885500-0021) to high homogeneity. Protein concentration was quantified using the BCA protein assay according to the manufacturer's protocol (Pierce, Rockford, Ill.). The homogenized RPE preparations were stored at −80° C.
Recombinant human apo cellular retinaldehyde-binding protein (CRALBP) was cloned and expressed according to standard methods in the molecular biology art (see Crabb et al., Protein Science 7:746-57 (1998); Crabb et al., J. Biol. Chem. 263:18688-92 (1988)). Briefly, total RNA was prepared from confluent ARPE19 cells (American Type Culture Collection, Manassas, Va.), cDNA was synthesized using an oligo(dT)12-18 primer, and then DNA encoding CRALBP was amplified by two sequential polymerase chain reactions (see Crabb et al., J. Biol. Chem. 263:18688-92 (1988); Intres, et al., J. Biol. Chem. 269:25411-18 (1994); GenBank Accession No. L34219.1). The PCR product was sub-cloned into pTrcHis2-TOPO TA vector according to the manufacturer's protocol (Invitrogen Inc., Carlsbad, Calif.; catalog no. K4400-01), and then the sequence was confirmed according to standard nucleotide sequencing techniques. Recombinant 6×His-tagged human CRALBP was expressed in One Shot TOP 10 chemically competent E. coli cells (Invitrogen), and the recombinant polypeptide was isolated from E. coli cell lysates by nickel affinity chromatography using nickel (Ni) Sepharose XK16-20 columns for HPLC (Amersham Bioscience, Pittsburgh, Pa.; catalog no. 17-5268-02). The purified 6×His-tagged human CRALBP was dialyzed against 10 mM bis-tris-Propane (BTP) and analyzed by SDS-PAGE. The molecular weight of the recombinant human CRALBP was approximately 39 kDal.
Alkkynyl phenyl-linked amine derivative compounds and control compounds were reconstituted in ethanol to 0.1 M. Ten-fold serial dilutions (10^−2, 10^−3, 10^−4, 10^−5, 10^−6 M) in ethanol of each compound were prepared for analysis in the isomerase assay.
The isomerase assay was performed in 10 mM bis-tris-propane (BTP) buffer, pH 7.5, 0.5% BSA (diluted in BTP buffer), 1 mM sodium pyrophosphate, 20 μM all-trans retinol (in ethanol), and 6 μM apo-CRALBP. The test compounds (2 μl) (final […] dilution of serial dilution stocks) were added to the above reaction mixture to which RPE microsomes were added. The same volume of ethanol was added to the control reaction (absence of test compound). Bovine RPE microsomes (9 μl) (see above) were then added, and the mixtures transferred to 37° C. to initiate the reaction (total volume=150 μl). The reactions were stopped after 30 minutes by adding methanol (300 μl). Heptane was added (300 μl) and mixed into the reaction mixture by pipetting. Retinoid was extracted by agitating the reaction mixtures, followed by centrifugation in a microcentrifuge. […]
With `NCCC(O)c1cccc(C#CCC2CCCC2)c1` (stereo not drawn) [Example 48, 3-Amino-1-(3-(3-cyclopentylprop-1-ynyl)phenyl)propan-1-ol], the IC50 – broadly, the concentration that inhibits the measured activity by half – is not above 1 µM.

In turn, `CC(C)C(C)(O)C#Cc1cccc(CCCN)c1` (stereo not drawn) [Example 21, 1-(3-(3-Aminopropyl)phenyl)-3,4-dimethylpent-1-yn-3-ol] yielded an IC50 not above 1 µM.

In turn, `NCCCc1cccc(C#Cc2ccsc2)c1` [Example 66, 3-(3-(Thiophen-3-ylethynyl)phenyl)propan-1-amine] came in with an IC50 not above 10 µM.

`COCC#Cc1cccc(CCCN)c1` [Example 9, 3-(3-(3-Methoxyprop-1-ynyl)phenyl)propan-1-amine] came in with an IC50 not above 10 µM.

The compound `NCCCc1cccc(C#C[C@H](O)c2ccccc2)c1` [Example 16, (R)-3-(3-(3-Aminopropyl)phenyl)-1-phenylprop-2-ynol] came in with an IC50 not above 1 µM.

In turn, `CCCCC[C@H](O)C#Cc1cccc(CCCN)c1` [Example 14, (S)-1-(3-(3-Aminopropyl)phenyl)oct-1-yn-3-ol] registered an IC50 not above 10 µM.

Compound `CC(C)(O)C#Cc1cccc(OCCN)c1` [Example 30, 4-(3-(2-Aminoethoxy)phenyl)-2-methylbut-3-yn-2-ol] had an IC50 not above 1 µM.

In turn, `Cc1ccccc1C#Cc1cccc(CCCN)c1` [Example 83, 3-(3-(o-Tolylethynyl)phenyl)propan-1-amine] returned an IC50 not above 10 µM.

`COCCCCC#Cc1cccc(CCCN)c1` [Example 67, 3-(3-(6-Methoxyhex-1-ynyl)phenyl)propan-1-amine] displayed an IC50 not above 1 µM.

With `CSc1ccc(C#Cc2cccc(CCCN)c2)cc1` [Example 94, 3-(3-((4-(Methylthio)phenyl)ethynyl)phenyl)propan-1-amine], the IC50 was not above 100 µM.

`NCCOc1cccc(C#Cc2cccs2)c1` [Example 95, 2-(3-(Thiophen-2-ylethynyl)phenoxy)ethanamine] came in with an IC50 not above 1 µM.

`NCCCc1cccc(C#Cc2cccs2)c1` [Example 65, 3-(3-(Thiophen-2-ylethynyl)phenyl)propan-1-amine] registered an IC50 not above 10 µM.

`NCCOc1cccc(C#CCCc2ccccc2)c1` [Example 86, 2-(3-(4-Phenylbut-1-ynyl)phenoxy)ethanamine] registered an IC50 not above 1 µM.

The compound `NCCCc1cccc(C#CCCCCO)c1` [Example 68, 6-(3-(3-Aminopropyl)phenyl)hex-5-yn-1-ol] had an IC50 not above 1 µM.

Take `Cc1cccc(C)c1C#Cc1cccc(CCCN)c1` [Example 17, 3-(3-((2,6-dimethylphenyl)ethynyl)phenyl)propan-1-amine]: the IC50 was not above 10 µM.

`NCCOc1cccc(C#Cc2ccccn2)c1` [Example 98, 2-(3-(Pyridin-2-ylethynyl)phenoxy)ethanamine] registered an IC50 not above 10 µM.

`NCCCc1cccc(C#CC2CCCCC2)c1` [Example 41, 3-(3-(Cyclohexylethynyl)phenyl)propan-1-amine] returned an IC50 not above 1 µM.

For `NCCOc1cccc(C#CCCO)c1` [Example 76, 4-(3-(2-Aminoethoxy)phenyl)but-3-yn-1-ol], the IC50 is not above 100 µM.

`CCCCCC#Cc1cccc(C(O)CCN)c1` (stereo not drawn) [Example 53, 3-Amino-1-(3-(hept-1-ynyl)phenyl)propan-1-ol]: the 50% inhibitory concentration (IC50) was not above 1 µM.

Consider `CCCCC[C@@H](O)C#Cc1cccc(CCCN)c1` [Example 15, (R)-1-(3-(3-Aminopropyl)phenyl)oct-1-yn-3-ol], for which the IC50 is not above 1 µM.

Compound `CC(O)(C#Cc1cccc(CCCN)c1)c1ccccc1` (stereo not drawn) [Example 22, 4-(3-(3-Aminopropyl)Phenyl)-2-Phenylbut-3-Yn-2-ol] showed an IC50 not above 1 µM.

Take `NCCCc1cccc(C#CC2(O)CCCCCC2)c1` [Example 58, 1-((3-(3-Aminopropyl)phenyl)ethynyl)cycloheptanol]: the IC50 is not above 1 µM.

In the case of `CC(C)CC(O)(C#Cc1cccc(CCCN)c1)CC(C)C` [Example 33, 4-((3-(3-Aminopropyl)phenyl)ethynyl)-2,6-dimethylheptan-4-ol], the half-inhibitory concentration (IC50) was not above 10 µM.

Compound `NCCCc1cccc(C#CCc2ccccc2)c1` [Example 42, 3-(3-(3-Phenylprop-1-ynyl)phenyl)propan-1-amine] returned an IC50 not above 1 µM.

Take `COCCCC#Cc1cccc(CCCN)c1` [Example 70, 3-(3-(5-Methoxypent-1-ynyl)phenyl)propan-1-amine]: the IC50 was not above 1 µM.

Another assay deals with retinoid nuclear receptors (RAR and RXR). The experiment in a line: Retinoid nuclear receptor activity, RAR and RXR together. It counts as cell-based. The conditions noted are these: reference agonists.
Take `CC1=C(/C=C/C(C)=C/C=C/C(C)=C/C(=O)O)C(C)(C)CCC1` [at-RA, all-trans-retinoic acid]: the “activation of the RXRα, RARα, RARβ and RARγ receptors” value is on record as “activated”.

For `C/C(=C\c1ccc(C(=O)O)cc1)c1ccc2c(c1)C(C)(C)CCC2(C)C` [TTNPB, E-4-[2-(5,6,7,8-tetrahydro-5,5,8,8-tetramethyl-2-naphthylenyl)-1-propenyl]benzoic acid], the “activation of the RXRα, RARα, RARβ and RARγ receptors” value is reported as “activated”.
